Key:
Test in all cases: biochemical
Conditions in all cases: read-out: %Ctrl @ 1000nM
[1] = target: ABL1(F317I)-phosphorylated (Homo sapiens, UniProt P00519, F317I)
ALK = ALK (Homo sapiens, UniProt Q9UM73)
ALK(C1156Y) = ALK(C1156Y) (Homo sapiens, UniProt Q9UM73, C1156Y)
BTK = BTK (Homo sapiens, UniProt Q06187)
CDK8 = CDK8 (Homo sapiens, UniProt P49336)
CDKL3 = CDKL3 (Homo sapiens, UniProt Q8IVW4)
DAPK3 = DAPK3 (Homo sapiens, UniProt O43293)
EGFR(E746-A750del) = EGFR(E746-A750del) (Homo sapiens, UniProt P00533, DEL746-750)
[2] = target: EGFR(L747-S752del, P753S) (Homo sapiens, UniProt P00533, DEL747-752/P753S)
EGFR(T790M) = EGFR(T790M) (Homo sapiens, UniProt P00533, T790M)
ERK8 = target: T1, ERK8 (Homo sapiens, UniProt Q8TD08)
T1 construct: gene MAPK15

FER = FER (Homo sapiens, UniProt P16591)
FGFR1 = FGFR1 (Homo sapiens, UniProt P11362)
FLT3(ITD,F691L) = FLT3(ITD,F691L) (Homo sapiens, UniProt P36888, F691L/ITD)
HIPK3 = HIPK3 (Homo sapiens, UniProt Q9H422)
IRAK3 = IRAK3 (Homo sapiens, UniProt Q9Y616)
JNK3 = target: T2, JNK3 (Homo sapiens, UniProt P53779)
T2 construct: gene MAPK10

KIT(V559D,V654A) = KIT(V559D,V654A) (Homo sapiens, UniProt P10721, V559D/V654A)
LCK = LCK (Homo sapiens, UniProt P06239)
LRRK2(G2019S) = LRRK2(G2019S) (Homo sapiens, UniProt Q5S007, G2019S)
MAP4K3 = MAP4K3 (Homo sapiens, UniProt Q8IVH8)
MAST1 = MAST1 (Homo sapiens, UniProt Q9Y2H9)
MKNK2 = MKNK2 (Homo sapiens, UniProt Q9HBH9)
MST2 = target: T3, MST2 (Homo sapiens, UniProt Q13188)
T3 construct: gene STK3

MUSK = MUSK (Homo sapiens, UniProt O15146)
NIM1 = target: T4, NIM1 (Homo sapiens, UniProt Q8IY84)
T4 construct: gene NIM1K

PAK2 = PAK2 (Homo sapiens, UniProt Q13177)
PIM3 = PIM3 (Homo sapiens, UniProt Q86V86)
PIP5K2C = target: T5, PIP5K2C (Homo sapiens, UniProt Q8TBX8)
T5 construct: gene PIP4K2C

PKN1 = PKN1 (Homo sapiens, UniProt Q16512)
PLK2 = PLK2 (Homo sapiens, UniProt Q9NYY3)
SRPK1 = SRPK1 (Homo sapiens, UniProt Q96SB4)
TGFBR2 = TGFBR2 (Homo sapiens, UniProt P37173)
TNNI3K = TNNI3K (Homo sapiens, UniProt Q59H18)
Sequence of TNNI3K (Q59H18 whole entry): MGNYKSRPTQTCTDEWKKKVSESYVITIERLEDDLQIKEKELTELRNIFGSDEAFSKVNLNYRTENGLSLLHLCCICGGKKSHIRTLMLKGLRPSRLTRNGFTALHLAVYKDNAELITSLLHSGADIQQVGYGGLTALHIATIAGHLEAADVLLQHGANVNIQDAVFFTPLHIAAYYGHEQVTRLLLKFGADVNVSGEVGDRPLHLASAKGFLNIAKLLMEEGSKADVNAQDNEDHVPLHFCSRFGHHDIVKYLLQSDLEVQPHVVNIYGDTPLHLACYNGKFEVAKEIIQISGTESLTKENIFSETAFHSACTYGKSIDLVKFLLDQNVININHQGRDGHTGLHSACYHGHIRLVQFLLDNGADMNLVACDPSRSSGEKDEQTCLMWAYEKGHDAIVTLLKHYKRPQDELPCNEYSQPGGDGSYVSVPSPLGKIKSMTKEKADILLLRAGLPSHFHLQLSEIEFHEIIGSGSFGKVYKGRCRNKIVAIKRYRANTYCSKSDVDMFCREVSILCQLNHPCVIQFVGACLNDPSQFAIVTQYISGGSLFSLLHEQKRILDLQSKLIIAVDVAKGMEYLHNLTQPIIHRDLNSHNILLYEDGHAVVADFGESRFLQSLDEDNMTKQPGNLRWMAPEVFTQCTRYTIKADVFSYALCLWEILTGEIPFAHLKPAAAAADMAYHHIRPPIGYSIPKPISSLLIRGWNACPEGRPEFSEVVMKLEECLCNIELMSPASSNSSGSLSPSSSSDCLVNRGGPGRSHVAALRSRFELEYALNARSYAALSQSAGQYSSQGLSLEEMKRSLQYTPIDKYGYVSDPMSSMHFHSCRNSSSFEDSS

Sequence of EGFR(E746-A750del) (P00533 with tags, fused parts or gaps DEL746-750): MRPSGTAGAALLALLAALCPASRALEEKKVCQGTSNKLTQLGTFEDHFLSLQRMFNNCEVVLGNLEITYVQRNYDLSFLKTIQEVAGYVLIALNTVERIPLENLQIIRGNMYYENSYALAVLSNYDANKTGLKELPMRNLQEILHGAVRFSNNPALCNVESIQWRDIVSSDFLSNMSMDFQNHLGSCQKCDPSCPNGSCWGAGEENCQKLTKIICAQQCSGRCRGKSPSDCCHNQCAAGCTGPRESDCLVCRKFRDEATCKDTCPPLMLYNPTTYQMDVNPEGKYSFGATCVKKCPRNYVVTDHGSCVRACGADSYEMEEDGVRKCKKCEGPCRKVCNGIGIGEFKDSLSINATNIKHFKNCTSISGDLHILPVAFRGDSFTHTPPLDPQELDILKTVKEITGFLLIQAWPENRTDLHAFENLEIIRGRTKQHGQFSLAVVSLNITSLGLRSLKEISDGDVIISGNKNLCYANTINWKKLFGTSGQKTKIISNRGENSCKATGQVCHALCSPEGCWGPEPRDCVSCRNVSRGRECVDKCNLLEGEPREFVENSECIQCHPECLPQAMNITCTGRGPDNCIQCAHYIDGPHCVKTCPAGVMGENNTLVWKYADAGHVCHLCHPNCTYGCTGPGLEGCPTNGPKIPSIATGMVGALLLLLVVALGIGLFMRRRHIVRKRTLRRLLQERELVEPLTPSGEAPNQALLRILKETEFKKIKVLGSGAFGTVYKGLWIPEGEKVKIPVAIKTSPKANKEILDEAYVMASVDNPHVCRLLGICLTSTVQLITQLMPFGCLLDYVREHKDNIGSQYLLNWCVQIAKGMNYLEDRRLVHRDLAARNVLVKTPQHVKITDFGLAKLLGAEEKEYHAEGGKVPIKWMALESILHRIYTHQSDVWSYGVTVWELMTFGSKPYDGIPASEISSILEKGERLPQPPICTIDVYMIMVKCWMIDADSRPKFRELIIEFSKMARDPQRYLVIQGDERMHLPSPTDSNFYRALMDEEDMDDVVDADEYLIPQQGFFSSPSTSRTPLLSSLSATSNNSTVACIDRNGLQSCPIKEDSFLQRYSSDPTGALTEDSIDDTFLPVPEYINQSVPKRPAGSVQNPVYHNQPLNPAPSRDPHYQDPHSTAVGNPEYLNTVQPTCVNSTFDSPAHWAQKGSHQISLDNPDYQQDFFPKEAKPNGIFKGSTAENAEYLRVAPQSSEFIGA
T2 sequence (P53779 whole entry): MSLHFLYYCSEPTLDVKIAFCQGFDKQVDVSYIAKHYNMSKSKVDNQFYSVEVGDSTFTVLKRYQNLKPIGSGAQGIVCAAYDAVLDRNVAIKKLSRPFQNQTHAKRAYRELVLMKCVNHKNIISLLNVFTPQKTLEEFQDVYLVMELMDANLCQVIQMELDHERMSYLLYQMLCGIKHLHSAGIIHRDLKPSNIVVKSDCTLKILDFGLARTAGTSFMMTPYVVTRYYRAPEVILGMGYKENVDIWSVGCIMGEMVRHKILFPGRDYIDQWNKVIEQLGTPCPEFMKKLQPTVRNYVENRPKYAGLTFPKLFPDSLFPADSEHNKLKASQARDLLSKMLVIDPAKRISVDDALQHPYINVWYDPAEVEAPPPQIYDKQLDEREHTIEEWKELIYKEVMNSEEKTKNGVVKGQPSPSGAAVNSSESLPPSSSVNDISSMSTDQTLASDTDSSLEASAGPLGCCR
Sequence of MKNK2 (Q9HBH9 whole entry): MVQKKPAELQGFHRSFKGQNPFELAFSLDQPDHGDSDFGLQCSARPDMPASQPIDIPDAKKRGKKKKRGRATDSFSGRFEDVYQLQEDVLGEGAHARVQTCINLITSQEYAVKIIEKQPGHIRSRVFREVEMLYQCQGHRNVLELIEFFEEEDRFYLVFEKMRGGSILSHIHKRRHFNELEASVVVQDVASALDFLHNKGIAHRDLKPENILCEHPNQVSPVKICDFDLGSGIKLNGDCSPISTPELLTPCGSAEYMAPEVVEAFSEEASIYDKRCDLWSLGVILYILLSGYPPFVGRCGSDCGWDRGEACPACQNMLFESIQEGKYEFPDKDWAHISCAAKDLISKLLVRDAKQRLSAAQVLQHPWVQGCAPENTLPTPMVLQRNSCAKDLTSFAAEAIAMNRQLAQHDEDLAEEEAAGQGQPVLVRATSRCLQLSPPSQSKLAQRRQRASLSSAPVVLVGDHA
Sequence of EGFR(L747-S752del, P753S) (P00533 with tags, fused parts or gaps DEL747-752/P753S): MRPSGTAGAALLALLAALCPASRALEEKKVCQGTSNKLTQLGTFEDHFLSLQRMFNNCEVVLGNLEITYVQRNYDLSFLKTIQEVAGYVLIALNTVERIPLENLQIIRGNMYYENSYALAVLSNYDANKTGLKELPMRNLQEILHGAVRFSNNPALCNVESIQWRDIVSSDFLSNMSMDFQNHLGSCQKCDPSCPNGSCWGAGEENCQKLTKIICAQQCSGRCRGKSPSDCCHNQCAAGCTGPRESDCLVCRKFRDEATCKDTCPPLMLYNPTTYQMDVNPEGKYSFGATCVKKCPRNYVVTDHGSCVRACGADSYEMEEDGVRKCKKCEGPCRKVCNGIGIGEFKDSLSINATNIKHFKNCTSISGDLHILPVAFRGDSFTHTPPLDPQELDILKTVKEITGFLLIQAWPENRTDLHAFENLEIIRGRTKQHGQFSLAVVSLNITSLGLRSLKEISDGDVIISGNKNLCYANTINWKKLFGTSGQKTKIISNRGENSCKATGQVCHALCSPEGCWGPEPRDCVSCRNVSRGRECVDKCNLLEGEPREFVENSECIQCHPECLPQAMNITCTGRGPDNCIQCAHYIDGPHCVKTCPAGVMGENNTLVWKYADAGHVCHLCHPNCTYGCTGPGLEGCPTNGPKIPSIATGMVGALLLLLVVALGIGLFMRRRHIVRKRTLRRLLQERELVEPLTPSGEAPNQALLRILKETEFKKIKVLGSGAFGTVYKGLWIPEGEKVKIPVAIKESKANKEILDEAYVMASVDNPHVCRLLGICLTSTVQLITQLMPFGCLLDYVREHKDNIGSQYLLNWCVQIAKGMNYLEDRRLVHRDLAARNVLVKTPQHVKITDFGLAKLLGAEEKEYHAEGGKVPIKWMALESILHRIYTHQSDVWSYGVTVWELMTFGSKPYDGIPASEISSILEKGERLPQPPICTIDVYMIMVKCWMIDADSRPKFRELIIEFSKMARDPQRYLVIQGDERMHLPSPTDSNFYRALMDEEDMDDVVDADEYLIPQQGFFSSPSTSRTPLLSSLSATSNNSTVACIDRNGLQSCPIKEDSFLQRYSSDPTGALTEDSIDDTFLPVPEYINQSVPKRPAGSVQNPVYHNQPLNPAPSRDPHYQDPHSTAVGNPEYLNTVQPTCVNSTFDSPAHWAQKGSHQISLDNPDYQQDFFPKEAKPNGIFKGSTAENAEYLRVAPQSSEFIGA
Sequence of LCK (P06239 whole entry): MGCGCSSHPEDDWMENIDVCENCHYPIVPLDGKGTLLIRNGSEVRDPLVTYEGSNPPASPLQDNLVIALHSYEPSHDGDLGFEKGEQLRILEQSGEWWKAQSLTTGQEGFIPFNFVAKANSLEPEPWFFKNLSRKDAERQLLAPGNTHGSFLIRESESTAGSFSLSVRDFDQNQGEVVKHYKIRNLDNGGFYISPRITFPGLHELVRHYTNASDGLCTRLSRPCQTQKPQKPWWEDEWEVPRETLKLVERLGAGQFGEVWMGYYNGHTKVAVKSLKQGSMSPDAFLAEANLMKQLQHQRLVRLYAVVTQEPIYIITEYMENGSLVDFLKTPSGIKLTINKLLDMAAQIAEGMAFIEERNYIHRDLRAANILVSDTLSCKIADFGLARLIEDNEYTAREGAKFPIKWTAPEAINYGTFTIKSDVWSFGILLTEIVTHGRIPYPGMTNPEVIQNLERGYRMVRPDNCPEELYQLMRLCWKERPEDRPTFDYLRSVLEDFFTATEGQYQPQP

Cc1cn(-c2cc(NC(=O)c3ccc4c(c3)CN(c3cncnc3)C[C@@H]4C)cc(C(F)(F)F)c2)cn1 [Compound 6j]
remaining activity at 1 µM [1]: 82%
remaining activity at 1 µM (ALK): 95%
remaining activity at 1 µM (ALK(C1156Y)): 100%
remaining activity at 1 µM (BTK): 100%
remaining activity at 1 µM (CDK8): 37%
remaining activity at 1 µM (CDKL3): 100%
remaining activity at 1 µM (DAPK3): 69%
remaining activity at 1 µM (EGFR(E746-A750del)): 94%
remaining activity at 1 µM [2]: 83%
remaining activity at 1 µM (EGFR(T790M)): 100%
remaining activity at 1 µM (ERK8): 84%
remaining activity at 1 µM (FER): 92%
remaining activity at 1 µM (FGFR1): 79%
remaining activity at 1 µM (FLT3(ITD,F691L)): 100%
remaining activity at 1 µM (HIPK3): 86%
remaining activity at 1 µM (IRAK3): 86%
remaining activity at 1 µM (JNK3): 100%
remaining activity at 1 µM (KIT(V559D,V654A)): 86%
remaining activity at 1 µM (LCK): 74%
remaining activity at 1 µM (LRRK2(G2019S)): 100%
remaining activity at 1 µM (MAP4K3): 96%
remaining activity at 1 µM (MAST1): 100%
remaining activity at 1 µM (MKNK2): 100%
remaining activity at 1 µM (MST2): 100%
remaining activity at 1 µM (MUSK): 31%
remaining activity at 1 µM (NIM1): 100%
remaining activity at 1 µM (PAK2): 85%
remaining activity at 1 µM (PIM3): 94%
remaining activity at 1 µM (PIP5K2C): 100%
remaining activity at 1 µM (PKN1): 100%
remaining activity at 1 µM (PLK2): 100%
remaining activity at 1 µM (SRPK1): 100%
remaining activity at 1 µM (TGFBR2): 94%
remaining activity at 1 µM (TNNI3K): 65%

Reference: publication PMC5053573, “Structure-Based Design of Tetrahydroisoquinoline-7-carboxamides as Selective Discoidin Domain Receptor 1 (DDR1) Inhibitors” (Journal of Medicinal Chemistry, 2016)
